Measurements taken from ChEMBL document CHEMBL1136820, “The role of 2',3'-unsaturation on the antiviral activity of anti-HIV nucleosides against 3TC-resistant mutant (M184V)” (Bioorg Med Chem Lett, 2003).

Key:
[1] = target: Human immunodeficiency virus type 1 reverse transcriptase (Human immunodeficiency virus 1) (UniProt Q72547); test: In vitro antiviral activity against HIV-1 Reverse transcriptase wild type
[2] = test system: HIV-1 reverse transcriptase (Human immunodeficiency virus 1); test: Ratio for inhibition of HIV-1 RT to that of type and HIV-1 RT M184V mutant was determined
[3] = test system: Human immunodeficiency virus type 1 reverse transcriptase (Human immunodeficiency virus 1), Q72547 [M184V]; test: In vitro antiviral activity against HIV-1 Reverse transcriptase M184V mutant

SMILES	EC90 [1] [µM]	FI [2]	EC90 [3] [µM]
Nc1ccn([C@@H]2O[C@H](CO)C=C2F)c(=O)n1	8	0.23	1.8
Nc1nc(=O)n([C@@H]2C=C[C@H](CO)O2)cc1F		0.8	
Nc1ccn(C2SC(CO)C=C2F)c(=O)n1 (configuration not stated)	5	25	125
